Assay results from PubChem BioAssay AID248 (DTP/NCI, 2004).
“And” between values parts separate entries of the source, which are not always exact repeats. Identical values can stand only once. Toxic doses and inconclusive results are not listed. Cut-off read from the data, not from the text of the source: active = T/C of 150% or more; inactive = T/C below 125%.

Test system: L1210 leukemia ip in BDF1 mice, survival T/C
Test: NCI In Vivo Anticancer Drug Screen. Data for tumor model L1210 Leukemia (intraperitoneal) in B6D2F1 (BDF1) mice
Settings: endpoint: mean survival time, higher = longer survival
Procedure, shortened: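 Each compound was tested against a transplantable tumor grown in mice. The endpoint was survival, with treated animals benchmarked against vehicle controls as a simple ratio.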

[1] = dose: 100.0 mg/kg/injection, schedule: Q01DX009 (ip), vehicle: Klucel (hydroxypropylcellulose) (HPC)
[2] = dose: 200.0 mg/kg/injection, schedule: Q01DX009 (ip), vehicle: Klucel (hydroxypropylcellulose) (HPC)
[3] = dose: 400.0 mg/kg/injection, schedule: Q01DX009 (ip), vehicle: Klucel (hydroxypropylcellulose) (HPC)
[4] = dose: 100.0 mg/kg/injection, schedule: Q01DX001 (ip), vehicle: saline
[5] = dose: 200.0 mg/kg/injection, schedule: Q01DX001 (ip), vehicle: saline
[6] = dose: 100.0 mg/kg/injection, schedule: Q04DX002 (ip), vehicle: Klucel (hydroxypropylcellulose) (HPC)
[7] = dose: 200.0 mg/kg/injection, schedule: Q04DX002 (ip), vehicle: Klucel (hydroxypropylcellulose) (HPC)
[8] = dose: 50.0 mg/kg/injection, schedule: Q01DX001 (ip), vehicle: saline
[9] = dose: 200.0 mg/kg/injection, schedule: Q04DX003 (ip), vehicle: Klucel (hydroxypropylcellulose) (HPC)
[10] = dose: 400.0 mg/kg/injection, schedule: Q04DX003 (ip), vehicle: Klucel (hydroxypropylcellulose) (HPC)
[11] = dose: 400.0 mg/kg/injection, schedule: Q01DX001 (ip), vehicle: saline
[12] = dose: 100.0 mg/kg/injection, schedule: Q04DX003 (ip), vehicle: saline with Tween-80
[13] = dose: 200.0 mg/kg/injection, schedule: Q04DX003 (ip), vehicle: saline with Tween-80
[14] = dose: 400.0 mg/kg/injection, schedule: Q04DX003 (ip), vehicle: saline with Tween-80
[15] = dose: 100.0 mg/kg/injection, schedule: Q01DX001 (ip), vehicle: Klucel (hydroxypropylcellulose) (HPC)
[16] = dose: 200.0 mg/kg/injection, schedule: Q01DX001 (ip), vehicle: Klucel (hydroxypropylcellulose) (HPC)
[17] = dose: 400.0 mg/kg/injection, schedule: Q01DX001 (ip), vehicle: Klucel (hydroxypropylcellulose) (HPC)

Measured: T/C

Nc1ccc2c(c1)-c1ccccc1C1=NCCN12
inactive: dose: 2.5 mg/kg/injection, schedule: Q04DX003 (ip), vehicle: Klucel (hydroxypropylcellulose) (HPC) 102 % of control | dose: 5.0 mg/kg/injection, schedule: Q01DX009 (ip), vehicle: Klucel (hydroxypropylcellulose) (HPC) 98 % of control | dose: 5.0 mg/kg/injection, schedule: Q04DX003 (ip), vehicle: Klucel (hydroxypropylcellulose) (HPC) 102 % of control | dose: 10.0 mg/kg/injection, schedule: Q01DX009 (ip), vehicle: Klucel (hydroxypropylcellulose) (HPC) 98 % of control | dose: 10.0 mg/kg/injection, schedule: Q04DX003 (ip), vehicle: Klucel (hydroxypropylcellulose) (HPC) 93 % of control | dose: 20.0 mg/kg/injection, schedule: Q01DX009 (ip), vehicle: Klucel (hydroxypropylcellulose) (HPC) 96 % of control | dose: 20.0 mg/kg/injection, schedule: Q04DX003 (ip), vehicle: Klucel (hydroxypropylcellulose) (HPC) 90 % of control

COC(=O)C/C(=N\NC(=O)c1ccccc1)C(=O)OC
inactive: dose: 50.0 mg/kg/injection, schedule: Q01DX009 (ip), vehicle: Klucel (hydroxypropylcellulose) (HPC) 98 % of control | [1] 93 % of control | [2] 98 % of control | [3] 93 % of control

CC(=O)OCCC[P+](c1ccccc1)(c1ccccc1)c1ccccc1
inactive: [4] 102 % of control | [5] 110 % of control

c1ccc(CCN2CCCCC2)cc1
inactive: dose: 10.0 mg/kg/injection, schedule: Q01DX001 (ip), vehicle: saline 95 % of control | dose: 20.0 mg/kg/injection, schedule: Q01DX001 (ip), vehicle: saline 116 % of control | dose: 40.0 mg/kg/injection, schedule: Q01DX001 (ip), vehicle: saline 96 % of control

CCOC(=O)CCCc1c(C)[nH]c2ccc(Cl)cc12
inactive: [6] 98 % of control | [7] 102 % of control | dose: 400.0 mg/kg/injection, schedule: Q04DX002 (ip), vehicle: Klucel (hydroxypropylcellulose) (HPC) 91 % of control

CN(C)C1=C(Cl)C(=O)c2ccccc2C1=O
inactive: [8] 102 % of control | [4] 100 % of control

CCCCCCCCN=[N+](C)[O-]
inactive: [6] 97 % of control | [7] 93 % of control

O=C=Nc1cccc(S(=O)(=O)F)c1
inactive: dose: 50.0 mg/kg/injection, schedule: Q01DX001 (ip), vehicle: carboxymethylcellulose (CMC) 105 % of control | dose: 100.0 mg/kg/injection, schedule: Q01DX001 (ip), vehicle: carboxymethylcellulose (CMC) 103 % of control | dose: 200.0 mg/kg/injection, schedule: Q01DX001 (ip), vehicle: carboxymethylcellulose (CMC) 105 % of control | dose: 400.0 mg/kg/injection, schedule: Q01DX001 (ip), vehicle: carboxymethylcellulose (CMC) 97 % of control

CCC(CC)(COS(=O)(=O)c1ccc(C)cc1)COS(=O)(=O)c1ccc(C)cc1
inactive: [1] 93 % of control | [2] 89 % of control | [9] 94 % of control | [3] 88 % of control | [10] 96 % of control

CCN(CC)CCn1c(=O)c2ccccc2c2ccccc21
inactive: [8] 108 % of control | dose: 50.0 mg/kg/injection, schedule: Q01DX009 (ip), vehicle: saline 106 % of control | dose: 50.0 mg/kg/injection, schedule: Q04DX003 (ip), vehicle: saline 103 % of control | [4] 104 % of control | dose: 100.0 mg/kg/injection, schedule: Q04DX003 (ip), vehicle: saline 111 % of control | dose: 200.0 mg/kg/injection, schedule: Q04DX003 (ip), vehicle: saline 107 % of control

O=S(=O)(/C(=C\c1ccccc1)c1ccccc1)C(Cl)c1ccccc1 (stereo not given)
inactive: [4] 96 % of control | [5] 110 % of control | [11] 95 % of control

O=C1NC(=S)N/C1=C\c1ccco1
inactive: dose: 25.0 mg/kg/injection, schedule: Q01DX001 (ip), vehicle: saline 100 % of control | [8] 100 % of control | [4] 98 % of control and 100 % of control

OC(CN1CCN(c2ccccc2)CC1)c1cc2ccccc2o1 (stereo not given)
inactive: [12] 104 % of control | [13] 94 % of control | [14] 94 % of control

CC(=O)OCC1OC(O)C(NC(=O)C(F)(F)F)C(OC(C)=O)C1OC(C)=O (stereo not given)
inactive: dose: 12.5 mg/kg/injection, schedule: Q04DX003 (ip), vehicle: saline 109 % of control | dose: 25.0 mg/kg/injection, schedule: Q04DX003 (ip), vehicle: saline 96 % of control

O=C(NCCCl)NC1C(O)OC(CO)C(O)C1O (stereo not given)
inactive: dose: 25.0 mg/kg/injection, schedule: Q01DX009 (ip), vehicle: water 95 % of control | dose: 50.0 mg/kg/injection, schedule: Q01DX009 (ip), vehicle: water 110 % of control | [4] 97 % of control | dose: 100.0 mg/kg/injection, schedule: Q01DX009 (ip), vehicle: water 105 % of control | [5] 98 % of control | dose: 200.0 mg/kg/injection, schedule: Q01DX009 (ip), vehicle: water 100 % of control | [11] 96 % of control | dose: 400.0 mg/kg/injection, schedule: Q01DX009 (ip), vehicle: water 97 % of control

NCCc1cnc(N=Nc2ccc(S(=O)(=O)N(CCCl)CCCl)cc2)[nH]1
inactive: [12] 93 % of control | [13] 86 % of control | [14] 89 % of control

CCCCOc1ccc(S(=O)(=O)c2ccc(OCCCC)c([N+](=O)[O-])c2)cc1[N+](=O)[O-]
inactive: dose: 75.0 mg/kg/injection, schedule: Q04DX002 (ip), vehicle: gum acacia 97 % of control | dose: 150.0 mg/kg/injection, schedule: Q04DX002 (ip), vehicle: gum acacia 97 % of control | dose: 300.0 mg/kg/injection, schedule: Q04DX002 (ip), vehicle: gum acacia 97 % of control

Nc1nc(N)c(-c2ccc(Cl)cc2)c(COc2cccc(NC(=O)c3ccc([N+](=O)[O-])cc3)c2)n1
inactive: [15] 104 % of control | [16] 97 % of control | [17] 91 % of control

Nc1nc(Cl)cc2c1ncn2C1OC(CO)C(O)C1O (stereo not given)
inactive: dose: 100.0 mg/kg/injection, schedule: Q01DX005 (ip), vehicle: saline 105 % of control | dose: 200.0 mg/kg/injection, schedule: Q01DX005 (ip), vehicle: saline 107 % of control

Clc1ccc(Nc2cc[n+]3ccccc3c2)cc1Cl
inactive: dose: 25.0 mg/kg/injection, schedule: Q01DX001 (ip), vehicle: Klucel (hydroxypropylcellulose) (HPC) 98 % of control | dose: 50.0 mg/kg/injection, schedule: Q01DX001 (ip), vehicle: Klucel (hydroxypropylcellulose) (HPC) 96 % of control | [15] 102 % of control and 117 % of control

CCCCC[As](=O)(O)O
inactive: dose: 1.5 mg/kg/injection, schedule: Q01DX001 (ip), vehicle: carboxymethylcellulose (CMC) 104 % of control | dose: 3.0 mg/kg/injection, schedule: Q01DX001 (ip), vehicle: carboxymethylcellulose (CMC) 102 % of control | dose: 6.0 mg/kg/injection, schedule: Q01DX001 (ip), vehicle: carboxymethylcellulose (CMC) 113 % of control

CC(C)(C)C(=O)[CH-]C(=O)C(C)(C)C.CC(C)(C)C(=O)[CH-]C(=O)C(C)(C)C.CC(C)(C)C(=O)[CH-]C(=O)C(C)(C)C.CS(C)=O.[Er+3]
inactive: [15] 98 % of control | dose: 100.0 mg/kg/injection, schedule: Q04DX003 (ip), vehicle: Klucel (hydroxypropylcellulose) (HPC) 103 % of control | [16] 101 % of control | [9] 98 % of control | [17] 96 % of control | [10] 103 % of control
